The target of assay [1] is T1, CCR9 (Homo sapiens, UniProt P51686).
T1 sequence (P51686 1-357 isoform P51686-2): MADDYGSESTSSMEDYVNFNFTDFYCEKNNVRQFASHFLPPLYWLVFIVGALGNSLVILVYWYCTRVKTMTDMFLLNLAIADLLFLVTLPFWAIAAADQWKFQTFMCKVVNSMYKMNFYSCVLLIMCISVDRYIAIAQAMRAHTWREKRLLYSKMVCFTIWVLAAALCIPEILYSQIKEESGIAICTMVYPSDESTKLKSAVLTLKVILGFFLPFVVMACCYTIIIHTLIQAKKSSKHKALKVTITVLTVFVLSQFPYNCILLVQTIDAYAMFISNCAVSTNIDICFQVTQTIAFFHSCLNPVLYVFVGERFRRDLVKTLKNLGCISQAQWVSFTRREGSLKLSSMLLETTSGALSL
It counts as cell-based. The following applies: for effect on the CCR9 degradation by 13 (ELISA): co-treatment with 13, HEK293T cells transiently expressing CCR9. A general note: An ELISA detects its analyte on a solid surface through an enzyme-linked reagent.

Assay [2] has as its target T1, CCR9. Nature of the assay: biochemical. It counts as binding. The following applies: CCR9_Nluc membranes; for Ki: tracer 3a 100 nM.
For assay [3], the target named is T2, CCR9 (Homo sapiens, UniProt P51686).
T2 sequence (P51686 1-369): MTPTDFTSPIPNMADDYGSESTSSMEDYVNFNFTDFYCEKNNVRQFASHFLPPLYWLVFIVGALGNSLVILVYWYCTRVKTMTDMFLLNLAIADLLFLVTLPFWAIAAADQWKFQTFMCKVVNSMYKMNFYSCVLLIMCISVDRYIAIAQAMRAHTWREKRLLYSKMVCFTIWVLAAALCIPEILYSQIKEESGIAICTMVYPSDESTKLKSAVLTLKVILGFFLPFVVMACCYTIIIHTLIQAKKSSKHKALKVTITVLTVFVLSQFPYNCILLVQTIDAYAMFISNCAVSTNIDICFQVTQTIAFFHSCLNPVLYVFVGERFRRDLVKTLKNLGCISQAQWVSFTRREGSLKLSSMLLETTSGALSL
Nature of the assay: cell-based. Format: cell-based. The following applies: for IC50: IC50 β-arrestin2 recruitment, HEK293T cells, stimulated with CCL25 31.6 nM. For orientation: Recruitment of arrestin is a read-out of receptor activation apart from second messengers.

The target of assay [4] is T1, CCR9. Nature of the assay: cell-based. The following applies: HEK293T cells, stimulated with CCL25 31.6 nM.
The target in assay [5] is T1, CCR9. The assay can be described thus: cell-based. The note with it: tracer 3a 120 nM, live HEK293T cells expressing CCR9_Nluc.
For another assay, the target named is T3, CCR2 (Homo sapiens, UniProt P41597).
T3 sequence (P41597 1-360 isoform P41597-2): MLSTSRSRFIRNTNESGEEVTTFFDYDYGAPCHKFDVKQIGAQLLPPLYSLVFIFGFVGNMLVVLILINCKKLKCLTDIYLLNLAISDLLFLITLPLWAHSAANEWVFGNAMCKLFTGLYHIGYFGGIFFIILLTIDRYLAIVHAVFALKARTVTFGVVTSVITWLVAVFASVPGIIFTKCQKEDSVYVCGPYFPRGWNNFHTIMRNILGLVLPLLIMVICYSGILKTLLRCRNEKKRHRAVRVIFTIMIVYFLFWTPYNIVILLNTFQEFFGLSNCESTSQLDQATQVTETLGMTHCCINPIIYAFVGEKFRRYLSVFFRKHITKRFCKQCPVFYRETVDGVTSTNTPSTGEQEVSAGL
The assay can be described thus: BRET-based G protein activation assay, CCR2. It counts as cell-based. The note with it: stimulated with CCL2 10 nM.

[6] abbreviates: pKi NanoBRET (membranes), mean±SEM.
[7] abbreviates: pKi NanoBRET (in cells), mean±SEM.

As a reminder, the Ki is a dissociation constant, usually derived from enzyme kinetics or from competition with a known ligand. Read a low Ki as higher affinity. What is called IC50 is the concentration needed to halve the response being measured. Read a high IC50 as a need for much substance.

In the case of `Cc1ncsc1-c1ccc(CNC(=O)[C@@H]2C[C@@H](O)CN2C(=O)[C@@H](N)C(C)(C)C)cc1` [(S,R,S)‐AHPC], the “effect on CCR9 levels (ELISA)” value on CCR9 [1] (HEK293T cells transiently expressing CCR9, 14 h treatment) is “did not result in reduction of CCR9 levels”. In addition, the “effect on the CCR9 degradation by 13 (ELISA)” value on CCR9 [1] is recorded as “can be counteracted”.
With `NS(=O)(=O)OC[C@@H]1C[C@@H](n2ccc3c(N[C@H]4CCc5ccccc54)ncnc32)C[C@@H]1O` [MLN4924], at CCR9 [1], the “effect on the CCR9 degradation by 13 (ELISA)” value is “can be reduced”.
Turning to `CC(C)(C)c1ccc(S(=O)(=O)Nc2ccc(Cl)cc2-c2nccnc2N)cc1` [compound 10], the inhibition constant (Ki) was 3.51 nM at CCR9 [2] (Ki NanoBRET (membranes)), 3.24 nM on CCR9 [2] (setting [6]), 11.5 nM at CCR9 [5] (Ki NanoBRET (in cells)) and 10.5 nM on CCR9 [5] (setting [7]). Also, the IC50 against CCR9 [3] was 17.4 nM; against CCR9 [4] (IC50 Gαo activation) it was 14.9 nM; against CCR9 [4] (pIC50 Gαo activation, mean±SEM), 14.8 nM.
Take `CC(C)(C)c1ccc(S(=O)(=O)Nc2ccc(Cl)cc2-c2cccnc2N)cc1` [compound 11]: the inhibition constant (Ki) was 13 nM at CCR9 [2] (Ki NanoBRET (membranes)), 12.3 nM on CCR9 [2] (setting [6]), 20.5 nM at CCR9 [5] (Ki NanoBRET (in cells)) and 19.1 nM at CCR9 [5] (setting [7]). The IC50 is 166 nM on CCR9 [3]; 256 nM on CCR9 [4] (IC50 Gαo activation); 257 nM on CCR9 [4] (pIC50 Gαo activation, mean±SEM).
Consider `CC(C)(C)c1ccc(S(=O)(=O)Nc2ccc(Cl)cc2-c2cncnc2N)cc1` [compound 12], for which, on CCR9 [3] (12 versus 1), the “increase in potency compared to 1, β-arrestin recruitment” value is “≈ 10 fold”. In addition, the “inhibition of CCR2 (G protein activation)” value at CCR2 is “no inhibition”.

B1: CCL25: orthosteric CCR9 agonist (protein, UniProt O15444 24-150, looked up)
C-C motif chemokine 25: QGVFEDCCLAYHYPIGWAVLRRAWTYRIQEVSGSCNLPAAIFYLPKRHRKVCGNPKSREVQRAMKLLDARNKVFAKLHHNTQTFQAGPHAVKKLSSGNSKLSSSKFSNPISSSKRNVSLLISANSGL
In the case of B1, in the assay with CCR9 [2] (3a 100 nM, prevented binding and displacement setup), the “effect on the binding of 3a to the IABS” value is recorded as “did not affect the binding”.
